This note sets out measurements from BindingDB's records for doi:10.1002/cbic.201200521 (University of Cambridge, 2013).

For the experiment, the target named is DNA repair and recombination protein RadA (Pyrococcus furiosus (strain ATCC 43587 / DSM 3638 / JCM 8422 / Vc1), UniProt O74036). Put plainly: Thermal Denaturation Assay. Here is the method: The thermal-shift denaturation assay was performed on an iCycler iQ Real Time Detection System (BioRad) in 96-well iCycler iQ PCR plates sealed with optically clear lids.
As a reminder, the Kd is the free concentration of one partner at which half of the binding sites on the other are occupied at equilibrium, for simple one-to-one binding. For `Oc1ccc2[nH]ccc2c1`, the Kd was 2100 µM.
On to `Cc1ccc2[nH]ccc2c1` [Indole, 2], for which the Kd is 2100 µM.
Regarding `c1ccc2[nH]ncc2c1` [Indazole, 5], the Kd was found to be 1000 µM.
`COC(=O)[C@@H](N)Cc1c[nH]c2ccccc12` [L-Methyl ester tryptophan, 8]: the Kd worked out at 570 µM.
